pIC50: −log10 of the molar value. Entries after “also recorded” stand apart in the source; their conditions may differ.
How the values were obtained:
Jurkat = assay: XTT cell viability, Jurkat; type: cell-based, human; conditions: increasing concentration up to 10 μM
Description: • 1. Ba/F3 cells were obtained from the German Collection of Microorganisms and Cell Cultures (DSMZ, Braunschweig, Germany) and maintained in RPMI 1640 medium supplemented with 10% fetal calf serum (Invitrogen) containing 10 ng/ml of interleukin-3 (Cell Concepts, Umkirch, Germany). Ecotropic Phoenix cells and Rat-1 cells were cultured in Dulbecco's modified Eagle's medium supplemented with 10% fetal calf serum. GNF-2 (Sigma-Adrich, Steinheim, Germany) was dissolved in dimethyl sulfoxide and added at a final concentration of […]. Cell growth was assessed by dye exclusion using Trypan blue. Proliferation was assessed using the XTT proliferation kit (Roche, Mannheim, Germany), according to the manufacturer's instructions. • 2. Ba/F3: IL-3 dependent lymphatic murine pro B cell line. Ba/F3 cells expressing either p185-BCR-ABL1 (p185-BCR-ABL-Ba/F3) or p210-BCR-ABL (p210-BCR-ABL-Ba/F3). p185-BCR-ABL1 (activated kinases substitute for the IL-3 signaling and therefore render the cells IL3 independent. Ba/F3 cells expressing either p185-BCR-ABL (p185-Ba/F3) or p210-BCR-ABL (p210-Ba/F3). Ba/F3 cells obtained from the German Collection of Microorganisms and Cell Cultures (DSMZ, Braunschweig, Germany). • 3. Mutant transduced Ba/F3 cells (T315I-p185-BCR-ABL1 or T315I-p210-BCR-ABL1): Ba/F3 cells expressing either the mutated forms T315I-p185-BCR-ABL1 or T315I-p210-BCR-ABL1. • 4. WT-Sup-B15: A Ph+ ALL cell line harboring the p185-BCR-ABL. Sup-B15: established from the bone marrow of a child with acute lymphoblastic leukemia (B cell precursor ALL) in second relapse in 1984; described in the literature to carry the ALL-variant (m-BCR) of the BCR-ABL1 fusion gene (e1-a2) correct, because it results in the p185-BCR-ABL version. • 5. […]
FIG. 2: Effect of Compound 16 on leukemia cell lines (Jurkat, Sup-B15 and BV173). Cell viablility (CV) was determined following incubation of the 1 m cells/ml of each cell line with increasing concentration of the Compound 16 [empty vehicle (0.0 μM+IL3), 2.5, 5.0 and 10.0 μM]. CV was measured by the XTT method. […]

[1] = test system: Ba/F3 cells expressing p185-BCR-ABL; assay: XTT cell viability / proliferation, Ba/F3 expressing p185-BCR-ABL; type: cell-based, murine
Description: • 1. Ba/F3 cells were obtained from the German Collection of Microorganisms and Cell Cultures (DSMZ, Braunschweig, Germany) and maintained in RPMI 1640 medium supplemented with 10% fetal calf serum (Invitrogen) containing 10 ng/ml of interleukin-3 (Cell Concepts, Umkirch, Germany). Ecotropic Phoenix cells and Rat-1 cells were cultured in Dulbecco's modified Eagle's medium supplemented with 10% fetal calf serum. GNF-2 (Sigma-Adrich, Steinheim, Germany) was dissolved in dimethyl sulfoxide and added at a final concentration of […]. Cell growth was assessed by dye exclusion using Trypan blue. Proliferation was assessed using the XTT proliferation kit (Roche, Mannheim, Germany), according to the manufacturer's instructions. • 2. Ba/F3: IL-3 dependent lymphatic murine pro B cell line. Ba/F3 cells expressing either p185-BCR-ABL1 (p185-BCR-ABL-Ba/F3) or p210-BCR-ABL (p210-BCR-ABL-Ba/F3). p185-BCR-ABL1 (activated kinases substitute for the IL-3 signaling and therefore render the cells IL3 independent. Ba/F3 cells expressing either p185-BCR-ABL (p185-Ba/F3) or p210-BCR-ABL (p210-Ba/F3). Ba/F3 cells obtained from the German Collection of Microorganisms and Cell Cultures (DSMZ, Braunschweig, Germany). • 3. Mutant transduced Ba/F3 cells (T315I-p185-BCR-ABL1 or T315I-p210-BCR-ABL1): Ba/F3 cells expressing either the mutated forms T315I-p185-BCR-ABL1 or T315I-p210-BCR-ABL1. • 4. WT-Sup-B15: A Ph+ ALL cell line harboring the p185-BCR-ABL. Sup-B15: established from the bone marrow of a child with acute lymphoblastic leukemia (B cell precursor ALL) in second relapse in 1984; described in the literature to carry the ALL-variant (m-BCR) of the BCR-ABL1 fusion gene (e1-a2) correct, because it results in the p185-BCR-ABL version. • 5. […] V617FJAK2 HEL: (Human erythroleukemia) is a growth factor independent erythroleukemic cell line established from the bone marrow of a patient with relapsed Hodgkin disease after autologous bone marrow transplantation (Martin P & Papayannopoulou T: Science 1982; 216:1233-1235). HEL cells display a block in differentiation at the level of common erythroid-megakaryocytic progenitor and have been commonly used as a model to study erythroid and megakaryocytic differentiation. • 7. Jurkat: an immortalized human T lymphocyte first derived from the peripheral blood of a child suffering from T cell leukemia. Jurkat cells are used to study acute T cell leukemia, T cell signaling, and the expression of various chemokine receptors susceptible to viral entry, particularly HIV.
FIGS. 1A and 1B: Effects of Compound 16 on Ba/F3 cells expressing either p185-BCR-ABL or T315I-p185-BCR-ABL. Cells were exposed to increasing concentration of Compound 16 [empty vehicle (0.0 μM+IL3), 2.5, 5.0 and 10.0 μM]. […] Cell viability (CV) was assessed using the XTT method as described in the experimental part. The means±SD of triplicates from one representative experiment out of three performed are given.
FIGS. 7A-C: Effects of Compound 16 on of Ba/F3 cells expressing WT-p185-BCR-ABL (FIG. 7A) and the mutant gatekeeper T315I-p185-BCR-ABL (FIG. 7B) by Compound 16. Cells were exposed to increasing concentrations of Compound 16.

[2] = test system: BV173 cells (p210-BCR-ABL); assay: XTT cell viability, BV173; type: cell-based, human
Description: FIG. 2: Effect of Compound 16 on leukemia cell lines (Jurkat, Sup-B15 and BV173). Cell viablility (CV) was determined following incubation of the 1 m cells/ml of each cell line with increasing concentration of the Compound 16 [empty vehicle (0.0 μM+IL3), 2.5, 5.0 and 10.0 μM]. CV was measured by the XTT method. The means±SD of triplicates from one representative experiment out of three performed are given.
Effect of Compound 16 on […] Jurkat (immortalized T lymphocytes derived from the peripheral blood of a child suffering from leukemia. Jurkat cells are often used to study acute T cell leukemia, T cell signaling, and the expression of various chemokine receptors in this experiment Jurkat cells are taken as control), Sup-B15 and BV173. Three Ph+ cells were used to assess the effect of Compound 16. Relevant concentration of the compound was added to seeded cells at day 1 (24 hrs) and cytotoxicity and proliferation were assessed at after 24, 48, 72, 96 and 120 h by XTT. The control was cells exposed to empty vehicle (0 μM, green line in each case), 1, 2 and 5 μM concentration of Compound 16 were administered to the three cell lines. […] The means±SD of triplicates from one representative experiment out of three performed are given. It could be concluded that though Compound 16 inhibits Ph+ Sup-B15 and BV173 are responsive towards Compound 16 with the notion that p210-BCR-ABL leukemia cells at lymphoblastic blast crisis stage are quite more sensitive than p185-BCR-ABL ALL cells at corresponding inhibitor concentration.
FIG. 6: Sensitivity of Sup-B15 (p185-BCR-ABL) compared BV173 cells (p210-BCR-ABL) towards increasing concentration of Compound 16. Ph+ cells were used to assess the effect of Compound 16. To assess the antiproliferative effect, cells were incubated with increasing concentration [0, 2, 4, 6, 8, and 10 μM] of Compound 16 and the viability was assessed using XTT. The means±SD of triplicates from one representative experiment out of three performed are given.

WT-Ba/F3 = assay: Proliferation by trypan blue exclusion, WT-Ba/F3; type: cell-based, murine; conditions: WT-Ba/F3, 1.0, 2.0 and 5.0 μM
Description: • 1. Ba/F3 cells were obtained from the German Collection of Microorganisms and Cell Cultures (DSMZ, Braunschweig, Germany) and maintained in RPMI 1640 medium supplemented with 10% fetal calf serum (Invitrogen) containing 10 ng/ml of interleukin-3 (Cell Concepts, Umkirch, Germany). Ecotropic Phoenix cells and Rat-1 cells were cultured in Dulbecco's modified Eagle's medium supplemented with 10% fetal calf serum. GNF-2 (Sigma-Adrich, Steinheim, Germany) was dissolved in dimethyl sulfoxide and added at a final concentration of […]. Cell growth was assessed by dye exclusion using Trypan blue. Proliferation was assessed using the XTT proliferation kit (Roche, Mannheim, Germany), according to the manufacturer's instructions. • 2. Ba/F3: IL-3 dependent lymphatic murine pro B cell line. […]
FIGS. 4A and 4B. […] All cell lines were treated with the indicated concentrations of Compound 16 for total period of five days and proliferation was determined by trypan blue exclusion of viable cells. […] For factor-independent growth, the number of viable cells was determined at day 3 by trypan blue dye exclusion.

Question: With `COc1ccc(C(=O)N2CCN(c3cc(Nc4ccc(OC(F)(F)F)cc4)ncn3)CC2)cc1OC` [Compound 16] as the compound, how does the “antiproliferative response (in words)” value (Jurkat) read?
Answer: highly insensitive; also recorded: irresponsive

Question: And the cells inhibited ([1]; 1 μM, within the first 24 hours)?
Answer: 35%

Question: What about the viable cells ([1]; 2 μM, T=48 hr) of the same compound?
Answer: 27.59%

Question: What about the cell proliferation affected ([1]; 5 μM) of the same compound?
Answer: ~90%

Question: And the time of maximum inhibition post application ([1]; 5 μM, WT-p185- and T315I-p185-BCR-ABL Ba/F3)?
Answer: 60 h

Question: What about the cells wiped ([2]; 2.5 μM) of the same compound?
Answer: around 100%

Question: And the pIC50 ([2]; BV173, XTT, estimated)?
Answer: ~5.70

Question: What about the “antiproliferative response (in words)” value ([2]; BV173, increasing concentration up to 10 μM) of the same compound?
Answer: most sensitive

Question: And the “concentration sufficient to block proliferation” value ([2]; within 24 hours exposure)?
Answer: 1 µM

Question: And the “effect on proliferation (in words)” value (WT-Ba/F3)?
Answer: without affecting the proliferation

Source: US20250228851A1, “ALLOSTERIC INHIBITOR COMPOUNDS FOR OVERCOMING CANCER RESISTANCE” (priority 2021, published 2025)
